Test results: ChEMBL document CHEMBL1157977, “Musidunin and musiduol, insect antifeedants from Croton jatrophoides” (2006)

Experiments:
Type in all cases: functional
[1] = system: Pectinophora gossypiella; test: Antifeedant activity against Pectinophora gossypiella second-instar larvae assessed as drug level causing 50% protection of host plant by leaf disc assay relative to control
[2] = system: Pectinophora gossypiella; test: Antifeedant activity against Pectinophora gossypiella second-instar larvae assessed as drug level causing 95% protection of host plant by leaf disc assay relative to control
[3] = system: Spodoptera frugiperda; test: Antifeedant activity against Spodoptera frugiperda second-instar larvae assessed as drug level causing 95% protection of host plant by leaf disc assay relative to control
[4] = system: Spodoptera frugiperda; test: Antifeedant activity against Spodoptera frugiperda second-instar larvae assessed as drug level causing 50% protection of host plant by leaf disc assay relative to control

SMILES	Activity [1] [µg/mL]	Activity [2] [µg/mL]	Activity [3] [µg/mL]	Activity [4] [µg/mL]
COC(=O)C[C@H]1C(C)(C)O[C@@]23OCC4=C5[C@H](O)C[C@@H](c6ccoc6)[C@]5(C)[C@@H](OC(C)=O)[C@H](OC(C)=O)[C@@H]4[C@@]12CCC3=O	3	10		
CC(=O)O[C@H]1[C@H](OC(C)=O)[C@]2(C)[C@@H](C(=O)C[C@H]2c2ccoc2)[C@]2(C)[C@H](O)C[C@H]3C(C)(C)O[C@]4(O)C(=O)CC[C@]34[C@@H]12	4	20	36	2
